Like-named read-outs stand apart in the source and are kept apart here. Marks after values point to notes of the source that are not given here.
How the values were obtained:
[1] = Plasma pharmacokinetics of capecitabine and its metabolites after oral capecitabine in CES2-modified mice; type: in vivo, mouse; settings: oral capecitabine 500 mg/kg, plasma; for AUC(0-t) / Cmax / Tmax: female, mouse, po, 500 mg/kg; for AUC(0-t): read-out: AUC0-2h; for Tmax: read-out: Tmax
Procedure: (§1) For capecitabine 2-h experiments, 6–7 female mice received oral capecitabine (500 mg/kg, 10 μL/g), and tail vein blood samples were collected at 0.125, 0.25, 0.5 and 1 h after drug administration. For the vinorelbine 4-h experiment, 6-7 male mice received vinorelbine intravenously (10 mg/kg, 5 μL/g) or orally (10 mg/kg, 10 μL/g) using a blunt-ended needle. Tail vein blood samples were collected at 0.125, 0.25, 0.5, 1 and 2 h after drug administration. […] At the last time point in each experiment (2 or 4 h), mice were anesthetized with 5% isoflurane and blood was collected by cardiac puncture. […] Plasma was isolated from the blood by centrifugation at 9000 × g for 6 min at 4 °C, and the plasma fraction was collected and stored at −30 °C until analysis.
(§2) Concentrations of capecitabine (and its metabolites) and vinorelbine (and its metabolite) in mouse plasma samples and organ homogenates were determined using two independent validated high-performance liquid chromatography-tandem mass spectrometry assays.
(§3) Pharmacokinetic parameters were calculated by non-compartmental methods using the PK solver software. […] Differences were considered statistically significant when P < 0.05. All data are presented as mean ± SD.

[2] = Tissue concentrations of capecitabine and its metabolites 2 h after oral capecitabine in CES2-modified mice; type: in vivo, mouse; settings: oral capecitabine 500 mg/kg; for concentration at 2 h: female, mouse, oral, 500 mg/kg
Procedure: as §1, §2, §3

[3] = Ces2^–/– (Ces2 cluster knockout), female Ces2^–/– mice
[4] = Ces2^–/– (Ces2 cluster knockout), female Ces2^–/– mice, read-out: Cmax
[5] = female Ces2^–/–A mice, read-out: Cmax
[6] = female Ces2^–/–V mice, read-out: Cmax
[7] = female wild-type mice, read-out: Cmax
[8] = Ces2^-/-, liver, female Ces2^–/– mice, read-out: Cliver (liver concentration)
[9] = Ces2^-/-, small intestine, female Ces2^–/– mice, read-out: CSI (small intestine tissue concentration)
[10] = Ces2^-/-A, liver, female Ces2^–/–A mice, read-out: Cliver (liver concentration)
[11] = Ces2^-/-A, small intestine tissue, female Ces2^–/–A mice, read-out: CSI (small intestine tissue concentration)
[12] = Ces2^-/-V, liver, female Ces2^–/–V mice, read-out: Cliver (liver concentration)
[13] = Ces2^-/-V, small intestine, female Ces2^–/–V mice, read-out: CSI (small intestine tissue concentration)
[14] = colon, female Ces2^–/– mice, read-out: Ccolon (colon concentration)
[15] = colon, female Ces2^–/–A mice, read-out: Ccolon (colon concentration)
[16] = colon, female Ces2^–/–V mice, read-out: Ccolon (colon concentration)
[17] = colon, female wild-type mice, read-out: Ccolon (colon concentration)
[18] = liver, female wild-type mice, read-out: Cliver (liver concentration)
[19] = small intestine contents, female Ces2^–/– mice, read-out: CSIC (small intestine contents concentration)
[20] = small intestine contents, female Ces2^–/–A mice, read-out: CSIC (small intestine contents concentration)
[21] = small intestine contents, female Ces2^–/–V mice, read-out: CSIC (small intestine contents concentration)
[22] = small intestine contents, female wild-type mice, read-out: CSIC (small intestine contents concentration)
[23] = small intestine tissue, female wild-type mice, read-out: CSI (small intestine tissue concentration)

C[C@H]1O[C@@H](n2cc(F)c(N)nc2=O)[C@H](O)[C@@H]1O [5’-DFCR, 5’-deoxy-5-fluorocytidine]
AUC0-2h ratio (metabolite/capecitabine) ([1]; female Ces2^–/– mice): 6.4 ± 1.9 | AUC0-2h ratio (metabolite/capecitabine) ([1]; female Ces2^–/–A mice): 6.4 ± 2.4 | AUC0-2h ratio (metabolite/capecitabine) ([1]; female Ces2^–/–V mice): 8.0 ± 2.2 | AUC0-2h ratio (metabolite/capecitabine) ([1]; female wild-type mice): 21.3 ± 3.5 | AUC(0-t) [1, 3]: 175000 ± 37300 ng·h/mL | Cmax [1, 4]: 121000 ± 23800 ng/mL | Tmax [1, 3]: 27.6 ± 16.2 min | AUC(0-t) ([1]; female Ces2^–/–A mice): 165000 ± 45200 ng·h/mL | Cmax [1, 5]: 117000 ± 35700 ng/mL | Tmax ([1]; female Ces2^–/–A mice): 27.6 ± 6 min | AUC(0-t) ([1]; female Ces2^–/–V mice): 123000 ± 34700 ng·h/mL | Cmax [1, 6]: 80000 ± 18200 ng/mL | Tmax ([1]; female Ces2^–/–V mice): 36.6 ± 22.8 min | AUC(0-t) ([1]; female wild-type mice): 123000 ± 24900 ng·h/mL | Cmax [1, 7]: 101000 ± 18000 ng/mL | Tmax ([1]; female wild-type mice): 15 ± 8.4 min | Colon concentration ratio (metabolite/capecitabine) ([2]; female Ces2^–/– mice): 2.0 ± 0.4 | Liver concentration ratio (metabolite/capecitabine) ([2]; female Ces2^–/– mice): 2.0 ± 0.6 | Small intestine concentration ratio (metabolite/capecitabine) ([2]; female Ces2^–/– mice): 0.36 ± 0.20 | Small intestine contents concentration ratio (metabolite/capecitabine) ([2]; female Ces2^–/– mice): 0.11 ± 0.04 | Colon concentration ratio (metabolite/capecitabine) ([2]; female Ces2^–/–A mice): 3.2 ± 0.2 | Liver concentration ratio (metabolite/capecitabine) ([2]; female Ces2^–/–A mice): 8.8 ± 3.6 | Small intestine concentration ratio (metabolite/capecitabine) ([2]; female Ces2^–/–A mice): 0.45 ± 0.21 | Small intestine contents concentration ratio (metabolite/capecitabine) ([2]; female Ces2^–/–A mice): 0.10 ± 0.06 | Colon concentration ratio (metabolite/capecitabine) ([2]; female Ces2^–/–V mice): 5.1 ± 2.1 | Liver concentration ratio (metabolite/capecitabine) ([2]; female Ces2^–/–V mice): 4.0 ± 1.0***##^^ | Small intestine concentration ratio (metabolite/capecitabine) ([2]; female Ces2^–/–V mice): 1.80 ± 0.88^###^^^ | Small intestine contents concentration ratio (metabolite/capecitabine) ([2]; female Ces2^–/–V mice): 0.13 ± 0.05 | Colon concentration ratio (metabolite/capecitabine) ([2]; female wild-type mice): 6.9 ± 1.3 | Liver concentration ratio (metabolite/capecitabine) ([2]; female wild-type mice): 17.4 ± 7.3 | Small intestine concentration ratio (metabolite/capecitabine) ([2]; female wild-type mice): 3.20 ± 1.70 | Small intestine contents concentration ratio (metabolite/capecitabine) ([2]; female wild-type mice): 0.19 ± 0.08 | concentration at 2 h [2, 8]: 33300 ± 11600 ng/g | concentration at 2 h [2, 9]: 5410 ± 1430 ng/g | concentration at 2 h [2, 10]: 36600 ± 5870 ng/g | concentration at 2 h [2, 11]: 6220 ± 1830 ng/g | concentration at 2 h [2, 12]: 23300 ± 8530 ng/g | concentration at 2 h [2, 13]: 3600 ± 1570 ng/g | concentration at 2 h [2, 14]: 25700 ± 10700 ng/g | concentration at 2 h [2, 15]: 28200 ± 5870 ng/g | concentration at 2 h [2, 16]: 21200 ± 8100 ng/g | concentration at 2 h [2, 17]: 14900 ± 3800 ng/g | concentration at 2 h [2, 18]: 20300 ± 5740 ng/g | concentration at 2 h [2, 19]: 10800 ± 5610 ng/g | concentration at 2 h [2, 20]: 8120 ± 2840 ng/g | concentration at 2 h [2, 21]: 5180 ± 2410 ng/g | concentration at 2 h [2, 22]: 4410 ± 2350 ng/g | concentration at 2 h [2, 23]: 4510 ± 1340 ng/g

O=c1[nH]cc(F)c(=O)[nH]1 [5-FU, 5-fluorouracil, reference compound]
AUC0-2h ratio (×10^−3) (5-FU/capecitabine) ([1]; female Ces2^–/– mice): 6.4 ± 2.1 ×10^−3 | AUC0-2h ratio (×10^−3) (5-FU/capecitabine) ([1]; female Ces2^–/–A mice): 8.0 ± 2.7 ×10^−3 | AUC0-2h ratio (×10^−3) (5-FU/capecitabine) ([1]; female Ces2^–/–V mice): 13 ± 1.6***^###^ ×10^−3 | AUC0-2h ratio (×10^−3) (5-FU/capecitabine) ([1]; female wild-type mice): 29 ± 8.1 ×10^−3 | AUC(0-t) [1, 3]: 187 ± 98 ng·h/mL | Cmax [1, 4]: 147 ± 96 ng/mL | Tmax [1, 3]: 55.8 ± 11.4 min | AUC(0-t) ([1]; female Ces2^–/–A mice): 218 ± 79 ng·h/mL | Cmax [1, 5]: 159 ± 56 ng/mL | Tmax ([1]; female Ces2^–/–A mice): 55.2 ± 12 min | AUC(0-t) ([1]; female Ces2^–/–V mice): 215 ± 100 ng·h/mL | Cmax [1, 6]: 156 ± 81 ng/mL | Tmax ([1]; female Ces2^–/–V mice): 51.6 ± 14.4 min | AUC(0-t) ([1]; female wild-type mice): 168 ± 41 ng·h/mL | Cmax [1, 7]: 105 ± 36 ng/mL | Tmax ([1]; female wild-type mice): 30 ± 16.2 min | Cmax ([1]; female wild-type, Ces2^–/–, Ces2^–/–A and Ces2^–/–V mice, read-out: mean Cmax, range over the mouse models): 105 to 159 ng/mL | Colon concentration ratio (metabolite/capecitabine) ([2]; female Ces2^–/– mice): 0.14 ± 0.03 | Liver concentration ratio (metabolite/capecitabine) ([2]; female Ces2^–/– mice): 0.09 ± 0.03 | Small intestine concentration ratio (metabolite/capecitabine) ([2]; female Ces2^–/– mice): 0.32 ± 0.10 | Small intestine contents Ratio (x 10^-3) (5-FU/Capecitabine) ([2]; female Ces2^–/– mice): 2.1 ± 0.7 x 10^-3 | Colon concentration ratio (metabolite/capecitabine) ([2]; female Ces2^–/–A mice): 0.17 ± 0.02 | Liver concentration ratio (metabolite/capecitabine) ([2]; female Ces2^–/–A mice): 0.52 ± 0.25 | Small intestine concentration ratio (metabolite/capecitabine) ([2]; female Ces2^–/–A mice): 0.32 ± 0.11 | Small intestine contents Ratio (x 10^-3) (5-FU/Capecitabine) ([2]; female Ces2^–/–A mice): 1.9 ± 1.6 x 10^-3 | Colon concentration ratio (metabolite/capecitabine) ([2]; female Ces2^–/–V mice): 0.50 ± 0.18^###^^^ | Liver concentration ratio (metabolite/capecitabine) ([2]; female Ces2^–/–V mice): 0.24 ± 0.07***^###^ | Small intestine concentration ratio (metabolite/capecitabine) ([2]; female Ces2^–/–V mice): 2.0 ± 0.9^###^^^ | Small intestine contents Ratio (x 10^-3) (5-FU/Capecitabine) ([2]; female Ces2^–/–V mice): 6.8 ± 3.0##^^ x 10^-3 | Colon concentration ratio (metabolite/capecitabine) ([2]; female wild-type mice): 0.53 ± 0.09 | Liver concentration ratio (metabolite/capecitabine) ([2]; female wild-type mice): 0.65 ± 0.31 | Small intestine concentration ratio (metabolite/capecitabine) ([2]; female wild-type mice): 2.1 ± 0.8 | Small intestine contents Ratio (x 10^-3) (5-FU/Capecitabine) ([2]; female wild-type mice): 5.1 ± 3.4 x 10^-3 | concentration at 2 h [2, 8]: 1520 ± 765 ng/g | concentration at 2 h [2, 9]: 5200 ± 2040 ng/g | concentration at 2 h [2, 10]: 2140 ± 372 ng/g | concentration at 2 h [2, 11]: 4430 ± 1510 ng/g | concentration at 2 h [2, 12]: 1420 ± 574 ng/g | concentration at 2 h [2, 13]: 4120 ± 1840 ng/g | concentration at 2 h [2, 14]: 1830 ± 1010 ng/g | concentration at 2 h [2, 15]: 1460 ± 233 ng/g | concentration at 2 h [2, 16]: 2100 ± 1020 ng/g | concentration at 2 h [2, 17]: 1190 ± 486 ng/g | concentration at 2 h [2, 18]: 747 ± 184 ng/g | concentration at 2 h [2, 19]: 200 ± 109 ng/g | concentration at 2 h [2, 20]: 142 ± 64 ng/g | concentration at 2 h [2, 21]: 263 ± 149 ng/g | concentration at 2 h [2, 22]: 125 ± 90 ng/g | concentration at 2 h [2, 23]: 3020 ± 835 ng/g

— PMC11845761, “Intestinal human carboxylesterase 2 (CES2) expression rescues drug metabolism and most metabolic syndrome phenotypes in global Ces2 cluster knockout mice” (Acta Pharmacologica Sinica, 2024)
